This passage reports IC50 results from patent publication US20190327974A1, “SYNERGISTS FOR IMPROVED PESTICIDES” (priority 2017, published 2019).

Test [1] concerns the target T1, Gly137Asp LcαE7 (Gly137Asp variant of αE7 carboxylesterase) (Lucilia cuprina, UniProt Q25252, G137D).
T1 construct: GenBank number is of the wild-type parent
As to the kind of experiment: Inhibition of Gly137Asp αE7 (competition assay, hydrolysis of 4-nitrophenol butyrate), dose-response curves of FIG. 8. The test is classed as biochemical. The procedure:
FIG. 8 presents dose-response curves for the inhibition of Glyl37Asp αE7. Inhibition of the hydrolysis of […] was determined for phenyl boronic acid (PBA) and compounds 1-5 and 3.1-3.12. Three (technical) replicate measurements of enzyme activity were performed for each concentration of boronic acid. The concentration of boronic acid required to inhibit 50% of activity (IC50) was determined by fitting a sigmoidal dose-response curve to plots of percentage inhibition. The curve was constrained to 0 (bottom) and 100% (top) inhibition with a variable Hill slope. […]
(§1) His6-tagged proteins were expressed in BL21(DE3) E. coli (Invitrogen) at 26° C. for 18 hours. Cells were collected by centrifugation, resuspended in lysis buffer (300 mM NaCl, 10 mM imidazole, 50 mM HEPES pH 7.5) and lysed by sonication. Cell debris was pelleted by centrifugation and the soluble fraction was loaded onto a HisTrap-HP Ni-Sepharose column (GE Healthcare). Bound protein was eluted with lysis buffer supplemented with 300 mM imidazole. Fractions containing the eluted protein were concentrated with a 30 kDa molecular mass cutoff centrifuge concentrator (Amicon) and loaded onto a HiLoad 26/60 Superdex-200 size-exclusion column (GE Healthcare) pre-equilibrated with 150 mM NaCl, 20 mM HEPES pH 7.5. Eluted fractions containing the monomeric protein were pooled for enzyme inhibition assays or crystallization. Protein concentration was determined by measuring the absorbance at 280 nm with an extinction coefficient calculated using the Protparam online server (Gasteiger, E. et al. Protein identification and analysis tools on the ExPASy server. Proteomics Protoc. Handb. 571-607 (2005). doi:10.1385/1-59259-890-0:571).
(§2) Inhibition of wild-type αE7 and the Gly137Asp αE7 variant was determined by a competition assay between the native-substrate analogue 4-nitrophenol butyrate (Sigma) and the boronic acid compounds. Initially, the Michalis constant (KM) with 4-nitrophenol butyrate was measured for both enzymes to determine an appropriate concentration of substrate for use in the competition assays. Formation of the 4-nitrophenolate product of hydrolysis was monitored at 405 nm in the presence of enzyme and eight different concentrations of substrate. 4-nitrophenol butyrate was prepared in methanol to 100 mM and serially diluted 1-in-2 to achieve concentrations from 100 mM to 0.8 mM. Enzyme stocks were prepared in 4 mg/ml bovine serum albumin (Sigma) to maintain enzyme stability. Reactions were prepared by pipetting 178 μl assay buffer (100 mM NaCl, 20 mM HEPES pH 7.5) and 2 μl substrate (final concentrations of 1000 to 8 μM) into 300 μl wells of a 96-well plate. The reaction was initiated by the addition of 20 μl enzyme (final concentration 2.5 nM for wildtype αE7 and 4 nM for Gly137Asp αE7). Product formation was monitored for four minutes at room temperature using an Epoch microplate spectrophotometer (BioTek) and the initial rates of ester hydrolysis were determined by linear regression using GraphPad Prism. The Michalis constant was determined by fitting the initial rates to the Michalis-Menton equation (FIG. 10).
Enzyme inhibition with the boronic acid compounds was determined by assaying the initial rate of 4-nitrophenol butyrate hydrolysis in the presence of either neat DMSO or the boronic acid compounds in DMSO. Compounds were prepared by serially diluting 1-in-3 an initial 10 mM stock to achieve concentrations from 10 mM to 2 nM. Reactions were prepared by pipetting 178 μl assay buffer supplemented with substrate to a final concentration equal to the KM of the enzyme (15 μM for wildtype αE7 and 250 μM for Gly137Asp αE7) into wells of a 96-well plate. 2 μl neat DMSO or 2 μl serially diluted inhibitor (final concentrations of 100 μM to 20 pM) were added to the wells. The reaction was initiated by the addition of 20 μl enzyme (final concentration 0.5 nM for wildtype αE7 and 10 nM for Glyl37Asp αE7). […]

The target in test [2] is T2, wild-type LcαE7 (αE7 carboxylesterase) (Lucilia cuprina, UniProt Q25252).
T2 sequence (Q25252 1-570): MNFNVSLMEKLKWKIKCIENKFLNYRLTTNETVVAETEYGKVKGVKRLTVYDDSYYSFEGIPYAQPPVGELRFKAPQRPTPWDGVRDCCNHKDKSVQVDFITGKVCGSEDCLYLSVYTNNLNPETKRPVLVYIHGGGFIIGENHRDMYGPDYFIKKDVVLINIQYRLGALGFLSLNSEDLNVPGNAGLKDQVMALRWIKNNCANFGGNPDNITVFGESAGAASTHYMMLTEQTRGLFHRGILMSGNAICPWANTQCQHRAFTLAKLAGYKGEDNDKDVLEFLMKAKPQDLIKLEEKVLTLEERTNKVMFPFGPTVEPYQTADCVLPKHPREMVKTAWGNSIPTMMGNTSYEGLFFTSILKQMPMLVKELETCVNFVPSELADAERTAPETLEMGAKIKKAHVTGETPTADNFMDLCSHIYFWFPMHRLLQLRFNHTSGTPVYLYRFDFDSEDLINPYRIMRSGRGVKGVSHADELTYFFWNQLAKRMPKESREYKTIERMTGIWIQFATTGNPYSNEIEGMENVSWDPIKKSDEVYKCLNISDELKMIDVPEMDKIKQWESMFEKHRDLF
The test can be described thus: Inhibition of wildtype αE7 (competition assay, hydrolysis of 4-nitrophenol butyrate), dose-response curves of FIG. 7. The test is classed as biochemical. Particulars: 95% confidence interval in brackets; recombinant His6-tagged enzyme from E. coli, 0.5 nM; 4-nitrophenol butyrate 15 μM (= KM); room temperature, pH 7.5, 405 nm; three technical replicates. The procedure:
FIG. 7 presents dose-response curves for the inhibition of wildtype αE7. Inhibition of the hydrolysis of […] was determined for phenylboronic acid (PBA) and compounds 1-5 and 3.1-3.12. Three (technical) replicate measurements of enzyme activity were performed for each concentration of boronic acid. The concentration of boronic acid required to inhibit 50% of activity (IC50) was determined by fitting a sigmoidal sigmoidal dose-response curve to plots of percentage inhibition. The curve was constrained to 0 (bottom) and 100% (top) inhibition with a variable Hill slope. […]
Wild-type LcαE7 was heterologously expressed in Escherichia coli and purified using metal ion affinity and size exclusion chromatography. The potency of the boronic acids was determined by enzymatic assays of recombinant LcαE7 with the model carboxylester substrate 4-nitrophenol butyrate.
as §1, §2
Enzyme inhibition with the boronic acid compounds was determined by assaying the initial rate of 4-nitrophenol butyrate hydrolysis in the presence of either neat DMSO or the boronic acid compounds in DMSO. Compounds were prepared by serially diluting 1-in-3 an initial 10 mM stock to achieve concentrations from 10 mM to 2 nM. Reactions were prepared by pipetting 178 μl assay buffer supplemented with substrate to a final concentration equal to the KM of the enzyme (15 μM for wildtype αE7 and 250 μM for Gly137Asp αE7) into wells of a 96-well plate. […]

T1 sequence (Q25252 entry or part of it G137D): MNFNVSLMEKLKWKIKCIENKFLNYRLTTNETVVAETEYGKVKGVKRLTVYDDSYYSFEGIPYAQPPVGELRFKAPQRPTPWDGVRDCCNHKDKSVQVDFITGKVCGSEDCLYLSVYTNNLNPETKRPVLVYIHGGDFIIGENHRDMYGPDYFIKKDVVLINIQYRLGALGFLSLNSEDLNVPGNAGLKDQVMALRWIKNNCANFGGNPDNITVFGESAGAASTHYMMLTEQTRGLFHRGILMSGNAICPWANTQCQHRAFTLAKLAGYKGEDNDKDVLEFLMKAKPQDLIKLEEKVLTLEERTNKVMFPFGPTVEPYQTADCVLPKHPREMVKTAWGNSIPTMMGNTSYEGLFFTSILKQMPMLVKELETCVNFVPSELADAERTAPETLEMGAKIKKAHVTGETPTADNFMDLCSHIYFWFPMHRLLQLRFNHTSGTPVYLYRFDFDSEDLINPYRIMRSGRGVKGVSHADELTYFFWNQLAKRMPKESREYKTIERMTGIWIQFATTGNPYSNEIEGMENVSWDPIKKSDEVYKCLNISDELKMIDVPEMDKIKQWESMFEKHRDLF

For `OB(O)c1ccc(OCc2ccccc2F)c(Cl)c1` [Compound 5, 3-Chloro-4(2′-fluorobenzyloxy) phenylboronic acid], the IC50 in test [1] amounted to 320 nM; in test [2], 22.4 nM.

As for `OB(O)c1cc(Br)cc(N2CCCC2)c1` [Compound 3], the IC50 in test [1] stood at 220 nM; in test [2], 0.52 nM.

Take `OB(O)c1ccccc1` [PBA, phenylboronic acid, reference compound]: the concentration for half-maximal inhibition (IC50) in test [1] was 880 nM; in test [2], 430 nM. With `Cc1ccc(B(O)O)cc1Br` [Compound 1], the IC50 in test [1] worked out at 95 nM; in test [2], 25 nM. In the case of `OB(O)c1cc(Br)cc(OCc2ccccc2)c1` [Compound 3.9], the IC50 in test [2] came out at 0.91 nM. Regarding `OB(O)c1cc(Br)cc2c1OCC2` [Compound 3.5], the results for the IC50 in test [1] and in test [2] were 850 nM and 7.2 nM, respectively. In the case of `CN1CCN(c2cc(Br)cc(B(O)O)c2)CC1` [Compound 3.4], the IC50 in test [1] worked out at 2000 nM; in test [2] it was 7.8 nM. The matching figures for `OB(O)c1cc(Br)cc(N2CCCCC2)c1` [Compound 3.3]: 290 nM and 0.97 nM.

Turning to `Cc1ccc(B(O)O)cc1OCc1ccccc1` [Compound 2], the results for the IC50 in test [1] and in test [2] were 57 nM and 6.1 nM, respectively. Regarding `CC(C)(C)Oc1ccc(B(O)O)cc1Br` [Compound 3.12], the IC50 in test [1] amounted to 1900 nM; in test [2], 25 nM. For `CC(C)Oc1cc(Br)cc(B(O)O)c1` [Compound 3.7, 3-Bromo-5-isopropoxyphenylboronic acid], the IC50 in test [1] worked out at 150 nM; in test [2] it was 0.62 nM. The matching figures for `O=C(c1cc(Cl)cc(B(O)O)c1)N1CCOCC1` [Compound 3.11]: 2000 nM and 12 nM.

As for `OB(O)c1cc(Br)cc(N2CCOCC2)c1` [Compound 3.1], the IC50 came to 840 nM in test [1] and 1.5 nM in test [2]. On the same counts, the results for `OB(O)c1cc(Br)cc(OC(F)(F)F)c1` [Compound 3.8] are 210 nM and 4.2 nM. As to `OB(O)c1cc(Br)cc(Oc2ccccc2)c1` [Compound 3.10, 3-Bromo-5-phenoxyfenylboronic acid], the IC50 in test [2] is 0.91 nM. As for `OB(O)c1ccc2ccccc2c1` [Compound 4], the IC50 in test [1] turned out to be 370 nM; in test [2], 15 nM. For the molecule `OB(O)c1cc(Br)c2ccccc2c1F` [Compound 3.6], the IC50 in test [1] turned out to be 140 nM; in test [2] it was 13 nM.

One may read the IC50 as the midpoint of a concentration-inhibition curve.
